{
  "source": "patent US10214762B2",
  "about": "“Cell differentiation devices and methods” (GEORGIA TECH RESEARCH CORPORATION, priority 2014, dated 2019)",
  "key": {"[1]": {"tested_on": "E. Coli strain (ATCC 43888)", "experiment": "three-channel, six-chamber microfluidic chemotaxis assay", "type": "cell-based, Escherichia coli", "description": "PBS, Tris and LB were autoclaved before use. E Coli strain (ATCC 43888) was obtained from Fisher Scientific (Pittsburgh, Pa.). All cultures were grown in 10 mL of LB incubated at 37° C. for approximately 4 hours until the optical density of sample at wavelength of 600 nm reached 0.8. Optical density at 600 nm was measured for cell culture quantification.\nAn exemplary device described and depicted herein consists of a center channel that delivers a bacteria sample from a small reservoir to the central interaction region, where the channel is perpendicularly connected to six chambers. […] These channels serve as a source for generating a chemical gradient in the chambers. A nitrocellulose membrane (Millipore type GSTF) with a 0.22 μm pore size serves as a porous medium that separates the side channels from the chambers while allowing chemicals to diffuse through to the chambers. The pore size of 0.22 μm was selected as an exemplary pore size to ensure chemical axial flow through the porous nitrocellulose substrate, while prohibiting the passage of the cells or analyte to be analyzed through the porous substrate. Other pore sizes may be utilized depending on the type of assay and cells or analyte to be analyzed are contemplated herein.\nThe same volume of buffer saline was taken back through the filter into the syringe; suspending the cells in the buffer saline medium. This process was repeated three times to ensure the complete exchange of growth medium with buffer saline. The bacterial motility was not affected.\nThe microfluidic device was prepared as follow. The top glass assembly was properly cleaned and reused for many experiments, while the membrane and the bottom glass were renewed for each experiment. Acetone, isopropanol, and DI water were used to effectively clean the top glass and reservoirs. The membrane layer was soaked entirely in buffer solution for 30 min before use to ensure the removal of all air bubbles. The soaked membrane was then aligned with the inlet/outlet ports on the top glass and sandwiched between the top glass and another glass slide using 6 small stainless steel clips that provide constant and consistent pressure over the entire membrane area, as shown in FIG. 3.\nAfter the device assembly, the input reservoirs were filled with buffer and the output reservoirs were vacuumed for a few seconds, the strong resulting flow expels all possible bubbles from the microfluidic system. The channels were inspected under microscope before conducting tests. All the experiments were conducted at least for three times to determine reproducibility. The bacterial chemotaxis experiments were conducted at an ambient temperature of 36° C.\nChemotactic response of cells to a chemical gradient was tested in another set of experiments. […]"}, "E Coli [2]": {"tested_on": "E Coli", "details": "about 20 mM aspartic acid; cited from earlier work"}, "[3]": {"details": "capillary assay; cited from earlier work"}, "E Coli [4]": {"tested_on": "E Coli", "details": "agarose gel diffusive medium; cited from earlier work"}},
  "data": [
    {"smiles": "[Cl][Ni][Cl]", "note": "[NiCl2, nickel chloride]", "values": [
      {"measurement": "ratio of bacteria count in the buffer chambers to the repellent side chambers", "setting": "[1]; 0.5 mM NiCl2 as repellent, Tris Buffered Saline", "result": "more than 8 times"},
      {"measurement": "motility of the cells after introducing the repellent", "setting": "[1]; due to an increase in tumbling frequency", "result": "reduced to some degree"}
    ]},
    {"smiles": "N[C@@H](CC(=O)O)C(=O)O", "note": "[aspartic acid, L-aspartic acid]", "values": [
      {"measurement": "chemotaxis index (IC)", "setting": "[1]; 0.5 mM aspartic acid in PBS buffer as attractant, cells in attractant chambers vs buffer side chambers, about 30 min", "result": 4},
      {"measurement": "aspartic acid concentration giving a more significant chemotactic response", "setting": "[1]; different aspartic acid concentrations tried", "result": 0.5, "unit": "mM"},
      {"measurement": "chemotactic index (peak response)", "setting": "E Coli [2]", "result": 1.74},
      {"measurement": "peak concentration for chemotaxis", "setting": "[3]", "result": "about 10 mM"},
      {"measurement": "concentration generating the maximum chemotactic response", "setting": "E Coli [4]", "result": 0.5, "unit": "mM"}
    ]}
  ]
}
